Experimental data published in patent US9073895B2 (Boehringer Ingelheim International GmbH, priority 2010, dated 2015).

Key:
[1] = molecular target: T1, recombinant human FLAP protein (Homo sapiens, UniProt P20292); assay: FLAP binding assay (SPA, displacement of [125I]L-691,831); settings: membranes of sf9 cells expressing human FLAP, [125I]L-691,831 probe; read-out: hFLAP binding IC50
T1 construct: made in house; host or cells: Sf9 insect cells (membrane fraction, 100,000 x g pellet)
T1 sequence (P20292 1-161): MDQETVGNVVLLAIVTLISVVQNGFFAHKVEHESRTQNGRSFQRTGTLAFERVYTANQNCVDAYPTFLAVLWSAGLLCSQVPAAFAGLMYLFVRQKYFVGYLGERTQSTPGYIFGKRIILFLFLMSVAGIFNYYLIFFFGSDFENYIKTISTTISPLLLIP
Method: Compounds are assessed for the ability to bind to FLAP in a binding assay that measures compound-specific displacement of an iodinated (^125I) FLAP inhibitor via a Scintillation Proximity Assay format (adapted from S. Charleson et al., Mol. Pharmacol., 1992, 41, 873-879).
Cell pellets produced from sf9 insect cells expressing recombinant human FLAP protein are resuspended in buffer A [15 mM Tris-HCl (pH 7.5), 2 mM MgCl2, 0.3 mM EDTA, 1 mM PMSF]. The cells are lysed with a Dounce homogenizer and the material is centrifuged at 10,000×g for 10 minutes. The supernatant is then collected and centrifuged at 100,000×g for 60 minutes. To prepare membrane protein for an assay, an aliquot of the 100,000×g pellet is resuspended in 1 ml of buffer A, Dounce homogenized, and finally subjected to polytron mixing (30 seconds). Membrane protein (25 μl, 5 μg) is mixed with WGA SPA beads (Amersham) and stirred for 1 h. To an assay plate (Perkin Elmer FlexiPlate) is added 25 μl of test compound prepared in Binding buffer [100 mM Tris (pH 7.5), 140 mM NaCl, 5% glycerol, 2 mM EDTA, 0.5 mM TCEP, 0.05% Tween 20], 25 μl of [^125I]L-691,831 (an iodinated analog of MK-591, Charleson et al. Mol. Pharmacol., 41, 873-879, 1992) and finally 50 μl of the bead/protein mixture. (final concentrations: beads, 200 μg/well; protein, 5μg/well; [^125I] probe, 0 08 nM/well(17 nCi/well). The plates are shaken for 2 h before reading on a Microbeta plate reader. Non-specific binding is determined by the addition of 10 μM cold L-691,831 compound.

[2] = tested on: synthesis of LTB4 in human whole blood; assay: Human whole blood LTB4 production inhibition assay; assay type: cell-based; settings: heparinized human whole blood, calcimycin 20 μM, plasma LTB4; read-out: HuWB IC50
Method: Compounds are additionally tested in a human whole blood assay to determine their ability to inhibit the synthesis of LTB4 in a cellular system. Compounds are combined with heparinized human whole blood and incubated for 15 minutes at 37° C. Calcimycin (20 μM final, prepared in phosphate-buffered saline, pH 7.4) is then added and the mixture is incubated for another 30 minutes at 37° C. The samples are centrifuged for 5 min at low speed (1500×g) and the plasma layer is removed. Plasma LTB4 concentrations are then measured using an antibody-based homogenous time-resolved fluorescence method (CisBio, Bedford, Mass.).

| Structure (SMILES) | IC50 [1] [nM] | IC50 [2] [nM] |
| --- | --- | --- |
| Nc1ncc(-c2ccc(C3(C(=O)Nc4ccc5c(c4)OCCO5)CCOCC3)cc2)cn1 [Example 12, 4-[4-(2-aminopyrimidin-5-yl)phenyl]-N-(2,3-dihydro-1,4-benzodioxin-6-yl)tetrahydro-2H-pyran-4-carboxamide] | 68 | 2220 |
| Nc1ncc(-c2ccc(C3(C(=O)Nc4ccc(Cl)c(Cl)c4)CCOCC3)cc2)cn1 [Example 13, 4-[4-(2-aminopyrimidin-5-yl)phenyl]-N-(3,4-dichlorophenyl)tetrahydro-2H-pyran-4-carboxamide] | 16.7 | ≥ 3000 |
| Nc1ncc(-c2ccc(C3(C(=O)Nc4cc(Cl)cc(Cl)c4)CCOCC3)cc2)cn1 [Example 15, 4-[4-(2-aminopyrimidin-5-yl)phenyl]-N-(3,5-dichlorophenyl)tetrahydro-2H-pyran-4-carboxamide] | 23.5 | > 3000 |
| Nc1ncc(-c2ccc(C3(C(=O)Nc4ccc5ncsc5c4)CCOCC3)cc2)cn1 [Example 18, 4-[4-(2-aminopyrimidin-5-yl)phenyl]-N-(1,3-benzothiazol-6-yl)tetrahydro-2H-pyran-4-carboxamide] | 16 | 1700 |
| Nc1ncc(-c2ccc(C3(C(=O)Nc4nc(-c5ccccc5)cs4)CCOCC3)cc2)cn1 [Example 20, 4-[4-(2-aminopyrimidin-5-yl)phenyl]-N-(4-phenyl-1,3-thiazol-2-yl)tetrahydro-2H-pyran-4-carboxamide] | 16 | 1340 |
| Nc1ncc(-c2ccc(C3(C(=O)Nc4cccc(Oc5ccccc5)c4)CCOCC3)cc2)cn1 [Example 22, 4-[4-(2-aminopyrimidin-5-yl)phenyl]-N-(3-phenoxyphenyl)tetrahydro-2H-pyran-4-carboxamide] | 60.5 | > 3000 |
| Nc1ncc(-c2ccc(C3(C(=O)Nc4ccc(C(F)(F)F)cn4)CCOCC3)cc2)cn1 [Example 23, 4-[4-(2-aminopyrimidin-5-yl)phenyl]-N-[5-(trifluoromethyl)pyridin-2-yl]tetrahydro-2H-pyran-4-carboxamide] | 59.7 | > 3000 |
| Nc1ncc(-c2ccc(C3(C(=O)Nc4cccc(-c5ccccc5)c4)CCOCC3)cc2)cn1 [Example 24, 4-[4-(2-aminopyrimidin-5-yl)phenyl]-N-(biphenyl-3-yl)tetrahydro-2H-pyran-4-carboxamide] | 95 | > 3000 |
| Nc1ncc(-c2ccc(C3(C(=O)Nc4cccc(-c5cnco5)c4)CCOCC3)cc2)cn1 [Example 26, 4-[4-(2-aminopyrimidin-5-yl)phenyl]-N-[3-(1,3-oxazol-5-yl)phenyl]tetrahydro-2H-pyran-4-carboxamide] | 26 | > 3000 |

These reach a lower IC50 [1]. Values come first.

| IC50 [1] [nM] | IC50 [2] [nM] | Structure (SMILES) |
| --- | --- | --- |
| 8.95 | 2250 | COc1ccc(NC(=O)C2(c3ccc(-c4cnc(N)nc4)cc3)CCOCC2)cc1Cl [Example 14, 4-[4-(2-aminopyrimidin-5-yl)phenyl]-N-(3-chloro-4-methoxyphenyl)tetrahydro-2H-pyran-4-carboxamide] |
| 10.7 | 636 | Nc1ncc(-c2ccc(C3(C(=O)Nc4ccc(-c5ccccc5)cc4)CCOCC3)cc2)cn1 [Example 16, 4-[4-(2-aminopyrimidin-5-yl)phenyl]-N-(biphenyl-4-yl)tetrahydro-2H-pyran-4-carboxamide] |
| 12 | > 3000 | Nc1ncc(-c2ccc(C3(C(=O)Nc4cccc(OC(F)(F)F)c4)CCOCC3)cc2)cn1 [Example 21] |
| 8.65 | 501 | Nc1ncc(-c2ccc(C3(C(=O)Nc4ccc(-c5csnn5)cc4)CCOCC3)cc2)cn1 [Example 25, 4-[4-(2-aminopyrimidin-5-yl)phenyl]-N-[4-(1,2,3-thiadiazol-4-yl)phenyl]tetrahydro-2H-pyran-4-carboxamide] |
| 5.5 | 207 | Nc1ncc(-c2ccc(C3(C(=O)Nc4ccc(-c5cnco5)cc4)CCOCC3)cc2)cn1 [Example 27, 4-[4-(2-aminopyrimidin-5-yl)phenyl]-N-[4-(1,3-oxazol-5-yl)phenyl]tetrahydro-2H-pyran-4-carboxamide] |
